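Compound exposure: 48 hours, 5 concentrations, 96-well plates. At the GI50, growth is halved. TGI denotes the concentration required for complete inhibition of growth.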
Key:
Assay in all cases: DTP human tumour cell line panel, 48 h; in the data active means GI50 below about 0.43 µM; inactive means the rest
NCI-H226 lung = system: NCI-H226 lung
PC-3 prostate = system: PC-3 prostate
K-562 leukemia = system: K-562 leukemia
NCI-H23 lung = system: NCI-H23 lung
SK-MEL-5 melanoma = system: SK-MEL-5 melanoma
NCI-H460 lung = system: NCI-H460 lung
IGROV1 ovarian = system: IGROV1 ovarian
HCT-116 colon = system: HCT-116 colon
COLO 205 colon = system: COLO 205 colon
UACC-257 melanoma = system: UACC-257 melanoma
NCI/ADR-RES ovarian = system: NCI/ADR-RES ovarian
SF-539 CNS = system: SF-539 CNS
HS 578T breast = system: HS 578T breast
786-0 renal = system: 786-0 renal
OVCAR-5 ovarian = system: OVCAR-5 ovarian
EKVX NSCLC = system: EKVX NSCLC
HCT-15 colon = system: HCT-15 colon
OVCAR-8 ovarian = system: OVCAR-8 ovarian
SF-295 CNS = system: SF-295 CNS
OVCAR-4 ovarian = system: OVCAR-4 ovarian
ACHN renal = system: ACHN renal
TK-10 renal = system: TK-10 renal
CAKI-1 renal = system: CAKI-1 renal
MCF7 breast = system: MCF7 breast
UACC-62 melanoma = system: UACC-62 melanoma
HOP-92 NSCLC = system: HOP-92 NSCLC
SNB-19 CNS = system: SNB-19 CNS
OVCAR-3 ovarian = system: OVCAR-3 ovarian
HT29 colon = system: HT29 colon
SN12C renal = system: SN12C renal
RXF 393 renal = system: RXF 393 renal
SK-MEL-28 melanoma = system: SK-MEL-28 melanoma
MDA-MB-435 = system: MDA-MB-435
SNB-75 CNS = system: SNB-75 CNS
MDA-N = system: MDA-N
SK-MEL-2 melanoma = system: SK-MEL-2 melanoma
SF-268 CNS = system: SF-268 CNS
SK-OV-3 ovarian = system: SK-OV-3 ovarian
BT-549 breast = system: BT-549 breast
DU-145 prostate = system: DU-145 prostate
CCRF-CEM leukemia = system: CCRF-CEM leukemia
MOLT-4 leukemia = system: MOLT-4 leukemia
M14 melanoma = system: M14 melanoma
SR leukemia = system: SR leukemia
RPMI-8226 leukemia = system: RPMI-8226 leukemia
U251 CNS = system: U251 CNS
SW-620 colon = system: SW-620 colon
KM12 colon = system: KM12 colon
HCC-2998 colon = system: HCC-2998 colon
A549 NSCLC = system: A549 NSCLC
MDA-MB-231 breast = system: MDA-MB-231 breast
UO-31 renal = system: UO-31 renal
T-47D breast = system: T-47D breast
LOX IMVI melanoma = system: LOX IMVI melanoma
A498 renal = system: A498 renal
HL-60(TB) leukemia = system: HL-60(TB) leukemia
MALME-3M melanoma = system: MALME-3M melanoma
HOP-62 NSCLC = system: HOP-62 NSCLC
NCI-H522 lung = system: NCI-H522 lung

CN1c2ccc(O)c(O)c2-c2cc(O)cc3c2C1CCC3 (configuration not stated)
31.3 µM: TGI (ACHN renal) | TGI (MALME-3M melanoma)
> 61 µM: TGI (KM12 colon)
28.4 µM: TGI (OVCAR-4 ovarian) | TGI (NCI-H522 lung)
42.6 µM: TGI (T-47D breast)
26.3 µM: TGI (LOX IMVI melanoma)
49.1 µM: TGI (HCC-2998 colon)
24.3 µM: TGI (RXF 393 renal)
> 66.1 µM: TGI (MDA-MB-231 breast)
33 µM: TGI (SF-268 CNS)
32.9 µM: TGI (TK-10 renal)
32.6 µM: TGI (HOP-62 NSCLC)
49.2 µM: TGI (PC-3 prostate)
27.9 µM: TGI (IGROV1 ovarian)
> 65 µM: TGI (U251 CNS)
50.7 µM: TGI (OVCAR-5 ovarian)
48.9 µM: TGI (CAKI-1 renal)
39.8 µM: TGI (BT-549 breast)
42.2 µM: TGI (UACC-257 melanoma) | TGI (SF-539 CNS)
34.4 µM: TGI (SNB-75 CNS)
25.8 µM: TGI (RPMI-8226 leukemia)
34.8 µM: TGI (M14 melanoma)
58.6 µM: TGI (SK-MEL-2 melanoma)
63.5 µM: TGI (SW-620 colon)
47.2 µM: TGI (HCT-116 colon)
29.6 µM: TGI (UO-31 renal)
39.2 µM: TGI (HL-60(TB) leukemia)
47.5 µM: TGI (COLO 205 colon)
58.3 µM: TGI (NCI-H23 lung)
33.3 µM: TGI (HOP-92 NSCLC)
41.5 µM: TGI (MCF7 breast)
> 59.5 µM: TGI (NCI-H460 lung)
35.6 µM: TGI (MOLT-4 leukemia)
48.7 µM: TGI (SK-MEL-28 melanoma)
51.7 µM: TGI (SN12C renal)
38.3 µM: TGI (MDA-N)
46.9 µM: TGI (EKVX NSCLC)
66.2 µM: TGI (HT29 colon)
9.61 µM: TGI (CCRF-CEM leukemia)
> 100 µM: TGI (SF-295 CNS) | TGI (SNB-19 CNS) | TGI (SK-OV-3 ovarian) | TGI (A498 renal)
40.8 µM: TGI (K-562 leukemia)
> 72.9 µM: TGI (HS 578T breast)
35.5 µM: TGI (SK-MEL-5 melanoma) | TGI (786-0 renal)
31 µM: TGI (MDA-MB-435)
65.6 µM: TGI (OVCAR-8 ovarian)
> 74.1 µM: TGI (A549 NSCLC)
59.4 µM: TGI (HCT-15 colon)
19.5 µM: TGI (OVCAR-3 ovarian)
30.6 µM: TGI (DU-145 prostate)
> 60.2 µM: TGI (NCI-H226 lung)
32.3 µM: TGI (UACC-62 melanoma)
24.9 µM: TGI (SR leukemia)
> 64.6 µM: TGI (NCI/ADR-RES ovarian)

COc1ccccc1-c1cc(=O)c2c(C)ccnc2[nH]1
> 100 µM: TGI (PC-3 prostate) | TGI (K-562 leukemia) | TGI (NCI-H23 lung) | TGI (NCI-H460 lung) | TGI (IGROV1 ovarian) | TGI (UACC-257 melanoma) | TGI (SF-539 CNS) | TGI (786-0 renal) | TGI (OVCAR-5 ovarian) | TGI (EKVX NSCLC) | TGI (HCT-15 colon) | TGI (OVCAR-8 ovarian) | TGI (OVCAR-4 ovarian) | TGI (ACHN renal) | TGI (TK-10 renal) | TGI (CAKI-1 renal) | TGI (MCF7 breast) | TGI (UACC-62 melanoma) | TGI (HOP-92 NSCLC) | TGI (SNB-19 CNS) | TGI (HT29 colon) | TGI (SN12C renal) | TGI (RXF 393 renal) | TGI (SK-MEL-28 melanoma) | TGI (SK-MEL-2 melanoma) | TGI (SF-268 CNS) | TGI (SK-OV-3 ovarian) | TGI (DU-145 prostate) | TGI (CCRF-CEM leukemia) | TGI (MOLT-4 leukemia) | TGI (M14 melanoma) | TGI (RPMI-8226 leukemia) | TGI (U251 CNS) | TGI (KM12 colon) | TGI (HCC-2998 colon) | TGI (A549 NSCLC) | TGI (MDA-MB-231 breast) | TGI (UO-31 renal) | TGI (T-47D breast) | TGI (LOX IMVI melanoma) | TGI (MALME-3M melanoma) | TGI (HOP-62 NSCLC)
43.1 µM: TGI (OVCAR-3 ovarian)
96.6 µM: TGI (SK-MEL-5 melanoma)
53.2 µM: TGI (NCI/ADR-RES ovarian)
44.3 µM: TGI (BT-549 breast)
98.9 µM: TGI (NCI-H226 lung)
69.3 µM: TGI (COLO 205 colon)
64.2 µM: TGI (SR leukemia)
83.7 µM: TGI (HL-60(TB) leukemia)
46.3 µM: TGI (HCT-116 colon)
40.7 µM: TGI (SW-620 colon)
inactive: GI50 (PC-3 prostate) 21 µM | GI50 (SK-MEL-5 melanoma) 22.6 µM | GI50 (NCI-H460 lung) 23.9 µM | GI50 (HCT-116 colon) 7.58 µM | GI50 (786-0 renal) 59.9 µM | GI50 (SF-295 CNS) 23.7 µM | GI50 (OVCAR-3 ovarian) 12.8 µM | GI50 (MDA-MB-435) 6.52 µM | GI50 (MDA-N) 8.41 µM | GI50 (U251 CNS) 35.3 µM | GI50 (HL-60(TB) leukemia) 21 µM
85.3 µM: TGI (A498 renal)
33.1 µM: TGI (MDA-N)
80.1 µM: TGI (SF-295 CNS)
30.5 µM: TGI (MDA-MB-435)
43.7 µM: TGI (NCI-H522 lung)
61.4 µM: TGI (HS 578T breast)
56.8 µM: TGI (SNB-75 CNS)

N#Cc1c(N2CCCC2)ncn(-c2ccccc2)c1=S
> 100 µM: TGI (NCI-H226 lung) | TGI (PC-3 prostate) | TGI (K-562 leukemia) | TGI (NCI-H23 lung) | TGI (SK-MEL-5 melanoma) | TGI (NCI-H460 lung) | TGI (IGROV1 ovarian) | TGI (HCT-116 colon) | TGI (COLO 205 colon) | TGI (UACC-257 melanoma) | TGI (NCI/ADR-RES ovarian) | TGI (SF-539 CNS) | TGI (HS 578T breast) | TGI (786-0 renal) | TGI (OVCAR-5 ovarian) | TGI (EKVX NSCLC) | TGI (HCT-15 colon) | TGI (OVCAR-8 ovarian) | TGI (SF-295 CNS) | TGI (OVCAR-4 ovarian) | TGI (ACHN renal) | TGI (TK-10 renal) | TGI (CAKI-1 renal) | TGI (MCF7 breast) | TGI (HOP-92 NSCLC) | TGI (SNB-19 CNS) | TGI (OVCAR-3 ovarian) | TGI (HT29 colon) | TGI (SN12C renal) | TGI (RXF 393 renal) | TGI (SK-MEL-28 melanoma) | TGI (MDA-MB-435) | TGI (SNB-75 CNS) | TGI (MDA-N) | TGI (SK-MEL-2 melanoma) | TGI (SF-268 CNS) | TGI (SK-OV-3 ovarian) | TGI (BT-549 breast) | TGI (DU-145 prostate) | TGI (CCRF-CEM leukemia) | TGI (MOLT-4 leukemia) | TGI (M14 melanoma) | TGI (SR leukemia) | TGI (RPMI-8226 leukemia) | TGI (U251 CNS) | TGI (SW-620 colon) | TGI (KM12 colon) | TGI (HCC-2998 colon) | TGI (A549 NSCLC) | TGI (MDA-MB-231 breast) | TGI (UO-31 renal) | TGI (T-47D breast) | TGI (LOX IMVI melanoma) | TGI (A498 renal) | TGI (HL-60(TB) leukemia) | TGI (MALME-3M melanoma) | TGI (HOP-62 NSCLC) | TGI (NCI-H522 lung)
69.3 µM: TGI (UACC-62 melanoma)

COc1cccc2c(=O)c3c(n(C)c12)OC(C(C)C)C3 (configuration not stated)
89.2 µM: TGI (OVCAR-4 ovarian)
86.2 µM: TGI (K-562 leukemia)
> 100 µM: TGI (NCI-H226 lung) | TGI (PC-3 prostate) | TGI (NCI-H23 lung) | TGI (SK-MEL-5 melanoma) | TGI (NCI-H460 lung) | TGI (IGROV1 ovarian) | TGI (HCT-116 colon) | TGI (COLO 205 colon) | TGI (UACC-257 melanoma) | TGI (NCI/ADR-RES ovarian) | TGI (SF-539 CNS) | TGI (HS 578T breast) | TGI (786-0 renal) | TGI (OVCAR-5 ovarian) | TGI (EKVX NSCLC) | TGI (HCT-15 colon) | TGI (OVCAR-8 ovarian) | TGI (SF-295 CNS) | TGI (ACHN renal) | TGI (TK-10 renal) | TGI (CAKI-1 renal) | TGI (MCF7 breast) | TGI (UACC-62 melanoma) | TGI (HOP-92 NSCLC) | TGI (SNB-19 CNS) | TGI (OVCAR-3 ovarian) | TGI (HT29 colon) | TGI (SN12C renal) | TGI (RXF 393 renal) | TGI (SK-MEL-28 melanoma) | TGI (MDA-MB-435) | TGI (SNB-75 CNS) | TGI (MDA-N) | TGI (SK-MEL-2 melanoma) | TGI (SF-268 CNS) | TGI (SK-OV-3 ovarian) | TGI (BT-549 breast) | TGI (DU-145 prostate) | TGI (CCRF-CEM leukemia) | TGI (MOLT-4 leukemia) | TGI (M14 melanoma) | TGI (SR leukemia) | TGI (RPMI-8226 leukemia) | TGI (U251 CNS) | TGI (SW-620 colon) | TGI (KM12 colon) | TGI (HCC-2998 colon) | TGI (A549 NSCLC) | TGI (MDA-MB-231 breast) | TGI (UO-31 renal) | TGI (T-47D breast) | TGI (LOX IMVI melanoma) | TGI (A498 renal) | TGI (HL-60(TB) leukemia) | TGI (MALME-3M melanoma) | TGI (HOP-62 NSCLC) | TGI (NCI-H522 lung)

Reference: PubChem BioAssay (NCI)
